Laboratory results as given in BindingDB's records for doi:10.1021/jm991125l (Institut Curie, 2000).

Assay: Effective concentration required to achieve 50% inhibition of HIV-1 LAI replication in human T4 lymphoblastoid CEM-SS cells.

Row | Structure (SMILES) | EC50 [µM]
1 | CCc1c(Sc2cc(C)cc(C)c2)n(CCCCC(=O)NCCCCCCCCCCCCNc2ccn(C3CCC(CO)O3)c(=O)n2)c(=O)[nH]c1=O (configuration not stated) | 0.43
2 | CCc1c(Sc2cc(C)cc(C)c2)n(CCCCC(=O)OC)c(=O)[nH]c1=O | 0.025
3 | CCc1c(C)[nH]c(=O)c(NC(=O)CCCC(=O)O)c1Cc1cc(C)cc(C)c1 | 4.5
4 | CCc1c(C)[nH]c(=O)c(NC(=O)CNC(=O)CNC(=O)OC(C)(C)C)c1Cc1cc(C)cc(C)c1 | 3.2
5 | COC(=O)CCCNC(=O)CCc1cn(C2CC(N=[N+]=[N-])C(CO)O2)c(=O)[nH]c1=O (configuration not stated) | > 100
6 | CCc1c(C)[nH]c(=O)c(NC(=O)CCCCCCCCCN)c1Cc1cc(C)cc(C)c1 | 58
7 | CCc1c(C)[nH]c(=O)c(NC(=O)CCCCCCCCC(=O)O)c1Cc1cc(C)cc(C)c1 | 70
8 | CCc1c(C)[nH]c(=O)c(NC(=O)CNC(=O)CN)c1Cc1cc(C)cc(C)c1 | 0.72
9 | CCc1c(Sc2cc(C)cc(C)c2)n(CCCCC(=O)NCCCCNC(=O)CCc2cn(C3CC(N=[N+]=[N-])C(CO)O3)c(=O)[nH]c2=O)c(=O)[nH]c1=O (configuration not stated) | 3.3
10 | CCc1c(C)[nH]c(=O)c(NC(=O)CCCC(=O)OC)c1Cc1cc(C)cc(C)c1 | 24
11 | COC(=O)CCc1cn(C2CC(N=[N+]=[N-])C(CO)O2)c(=O)[nH]c1=O (configuration not stated) | > 100
12 | CCc1c(C)[nH]c(=O)c(NC(=O)CCCCCCCCCNC(=O)OC(C)(C)C)c1Cc1cc(C)cc(C)c1 | > 10
13 | CCc1c(Sc2cc(C)cc(C)c2)n(CCCCC(=O)NCCCCCCCCCCNC(=O)CCn2c(=O)c(C)cn(C3CC(N=[N+]=[N-])C(CO)O3)c2=O)c(=O)[nH]c1=O (configuration not stated) | 2.8
14 | CCc1c(Sc2cc(C)cc(C)c2)n(CCCCC(=O)NCCCCCCCCCCNC(=O)CCc2cn(C3CC(N=[N+]=[N-])C(CO)O3)c(=O)[nH]c2=O)c(=O)[nH]c1=O (configuration not stated) | 1.7
15 | CCOC(=O)CCn1c(=O)c(C)cn(C2CC(N=[N+]=[N-])C(CO)O2)c1=O (configuration not stated) | 0.8
16 | [N-]=[N+]=NC1CC(n2cc(CCC(=O)NCCCCN)c(=O)[nH]c2=O)OC1CO (configuration not stated) | > 100
17 | NCCCCCCCCCCCCNc1ccn(C2CCC(CO)O2)c(=O)n1 (configuration not stated) | 7.8
18 | CCc1c(C)[nH]c(=O)c(NC(=O)CCCCCCCCC(=O)OC)c1Cc1cc(C)cc(C)c1 | > 10
19 | [N-]=[N+]=NC1CC(n2cc(CCC(=O)NCCCCCCCCCCN)c(=O)[nH]c2=O)OC1CO (configuration not stated) | 20
20 | Cc1cn([C@H]2C[C@H](N=[N+]=[N-])[C@@H](CO)O2)c(=O)[nH]c1=O [1-((2R,4S,5S)-4-Azido-5-hydroxymethyl-tetrahydro-furan-2-yl)-5-methyl-1H-pyrimidine-2,4-dione] | 0.002
21 | CCc1c(C)[nH]c(=O)c(N)c1Cc1cc(C)cc(C)c1 [3-amino-4-[(3,5-dimethylphenyl)methyl]-5-ethyl-6-methyl-1,2-dihydropyridin-2-one] | 0.017
22 | Nc1ccn([C@H]2CC[C@@H](CO)O2)c(=O)n1 [Dideoxycytidine] | 0.031
